Residues, ends and D or L forms follow the SMILES beside them. *: point of attachment. Cbz = O=C(OCc1ccccc1)*
Legend:
HMGCR [1] = test: Immunoblotting for HMGCR in U2OS cells; format: cell-based, human; details: for rescue of HMGCR in glutamine-starved cells: U2OS w/o glutamine 24h, then treated 24h: 1mM sodium pyruvate, DON at indicated concentrations, 2 mM D-gln; for loss of HMGCR during glutamine withdrawal: U2OS gln-, αKG 1 mM (24h), ISRIB 200nM (8h)
Experimental: Cells were tested frequently for Mycoplasma infection by PCR.
(§1) Primary antibodies were incubated in PBS-T overnight.

U2OS cells [2] = details: U2OS cultured 24h w/o gln, supplemented 24h with 10 mM 15NH4Cl
Experimental: (§4) 2 × 10^5 cells were plated in complete DMEM in 6 wells plates. The following day, cells were rinsed 2X with 1X PBS and cultured in DMEM. Treatments were started the following day as indicated in the text in 6 wells plates containing. For glucose-related isotope-labeling experiments, D-Glucose-^13C6 (Sigma #389374-1G) was administed at 25mM in 1 ml of glutamine-free DMEM. […] After the indicated treatments cells were washed twice with 75mM of ammonium carbonate pH =7.4 and the plates were frozen in liquid nitrogen and stored at -80°C until metabolite extraction. For metabolite extraction, 60% MeOH containing internal standards buffer was added to each well of the frozen plate. […]
(§5) The LC-HRMS analysis of amine-containing compounds was performed using a QE-Plus high-resolution mass spectrometer coupled to a Vanquish UHPLC chromatography system (Thermo Fisher Scientific). […] The identity of each compound was validated by authentic reference compounds, which were measured at the beginning and the end of the sequence. For data analysis the area of the protonated [M + nBz + H]+ (nBz stands for the number of benzoyl moieties attached to each compound) isotopologue mass peaks of every required compound were extracted and integrated using a mass accuracy <3 ppm and a retention time (RT) tolerance of <0.05 min as compared to the independently measured reference compounds. […]

HepG2 cells = details: HepG2 cultured 24h w/o gln, supplemented 24h with 10 mM 15NH4Cl
Experimental: as §4, §5

p70 phospho-S6K (pS6K) = test: Immunoblotting for phospho-S6K (mTORC1 activity) in U2OS cells; format: cell-based, human; details: U2OS gln-, αKG 1 mM
Experimental: (§6) For all experiments, unless otherwise indicated, cells were plated in complete DMEM. The next day cell monolayers were rinsed 2X with 1X PBS and cultured in DMEM overnight, followed by treatments as indicated in text. […] Lysates were subsequently shaken at 1500 rpm at 37°C for 15min, centrifuged for 5 min at 1200 rpm at 4°C, and the supernatant was transferred into a fresh tube. Protein concentration was quantified using Pierce™ BCA Protein Assay Kit and after diluted with 5X SDS added to a final of 1X SDS. 10 ug of protein was applied in an SDS-PAGE gel and transferred to PVDF membranes. Membranes were blocked with PBS-0.05% Tween 20 (PBS-T) and 5% non-fat milk for 30min. Primary antibodies were incubated in PBS-T overnight.

SREBP2 [3] = test: Immunoblotting for precursor and mature SREBP2 in U2OS cells; format: cell-based, human; details: U2OS starved of glutamine 8h ± αKG 1 mM
Experimental: as §6

eGFP-SCAP = test: Immunofluorescence assay of eGFP-SCAP localization relative to the Golgi in CHO cells; format: cell-based, Chinese hamster; details: CHO w/o gln 24h
Experimental: For immunofluorescence (IF) analysis of eGFP-SCAP-expressing CHOs, .25 × 10^4 cells were plated in a 24-well glass-bottom sensoplate, starved of glutamine for 24h, and incubated with methionine sulfoximine at 0.5 mM with either no glutamine, 2 mM glutamine, or 1mM a-ketoglutarate. […] Following 3X rinses in 1X PBS, images were taken using an Olympus IXplore SpinSR spinning disk confocal microscope.

U2OS cells [4] = test: 13C6-glucose isotope labeling and metabolomics (AEX-MS) of TCA metabolites in U2OS cells; format: cell-based, human; details: U2OS 24h, gln-, 1 mM αKG
Experimental: (§2) 2 × 10^5 cells were plated in complete DMEM in 6 wells plates. The following day, cells were rinsed 2X with 1X PBS and cultured in DMEM. Treatments were started the following day as indicated in the text in 6 wells plates containing. For glucose-related isotope-labeling experiments, D-Glucose-^13C6 (Sigma #389374-1G) was administed at 25mM in 1 ml of glutamine-free DMEM. For ammonia-related isotope-labeling experiments, ammonium label experiments Ammonium-^15N chloride (Sigma #299251-250MG) at 10mM. After the indicated treatments cells were washed twice with 75mM of ammonium carbonate pH =7.4 and the plates were frozen in liquid nitrogen and stored at -80°C until metabolite extraction. For metabolite extraction, 60% MeOH containing internal standards buffer was added to each well of the frozen plate. The cells were then scraped, transferred to a new tube containing MTBE and EquiSPLASH™ LIPIDOMIX® (Avanti 330731-1EA), and incubated for 30 min at 1500 rpm at 4°C. The samples were centrifuged for 10 min at 21.000xg at 4°C. The supernatants were then collected in a new tube with LCMS-grade H2O, incubated for 10 min at 1500 rpm at 15°C, and further centrifuged for 5 min at 16.000xg at 15°C to obtain a clear phase separation. The upper phase (apolar metabolites) and the down phase (polar metabolites) were collected in different tubes. After, the metabolite extracts were dried down in speed vac and stored at -80°C until further analysis by LC-HRS-MS as described further.

U2OS cells [5] = test: UPLC-HRMS-based measurement of 13C-cholesterol in U2OS cells; format: cell-based, human; details: U2OS 24h, 25 mM 13C6-glucose, gln-, 1 mM αKG
Experimental: as §2, with “After, the metabolite extracts were dried down in speed vac and stored at -80°C until further analysis by LC-HRS-MS as described further.” left out

FDFT1 = test: Immunoblotting for FDFT1 in U2OS cells; format: cell-based, human; details: U2OS starved of glutamine 8 hours, αKG 1 mM
Experimental: as §6

HMGCR [6] = test: Immunoblotting for HMGCR in HepG2 cells; format: cell-based, human
Text: (§3) HeLa adenocarcinoma cells, HepG2 hepatocellular carcinoma, and Wild-type (WT) MEFs as well as Mfn1^-/^-, and Mfn2^-/- mouse embryonic fibroblasts (MEFs) were obtained from ATCC (CCL-2, HB-8065, CRL-2991, CRL-2992, and CRL-2993, respectively). eGFP-SCAP-expressing CHO Chinese hamster ovary cells were provided by Drs. J Goldstein and M Brown (U of Texas Southwestern Medical Center); WT and MFN2 KO U2OS cells were provided by Dr. Edward A Fon (McGill University, Montreal, Canada). All cell lines were cultured in complete DMEM (cDMEM: DMEM + 10% heat-inactivated FBS + 1%P/S) at 5% CO2 except for CHO cells which were cultured in DMEM/F12 media containing 5% heat-inactivated FBS. For all the experiments, cells were plated and cultivated without FBS (DMEM and 10% H20 for cell culture + 1%P/S) to promote cholesterol synthesis. Cells were tested frequently for Mycoplasma infection by PCR.
For all experiments, unless otherwise indicated, cells were plated in complete DMEM. The next day cell monolayers were rinsed 2X with 1X PBS and cultured in DMEM overnight, followed by treatments as indicated in text. Whole cells were harvested in chilled lysis buffer (50mM Hepes-KOH pH 7.4, 40mM NaCl, 2mM EDTA, 1.5mM NaVO4, 50mM NaF, 10mM NaPyrophosphate, 10mM, NaBetaGlycerophosphate (disodium salt pentahydrate), 1% Triton X-100) containing 0.25U/uL. Lysates were subsequently shaken at 1500 rpm at 37°C for 15min, centrifuged for 5 min at 1200 rpm at 4°C, and the supernatant was transferred into a fresh tube. Protein concentration was quantified using Pierce™ BCA Protein Assay Kit and after diluted with 5X SDS added to a final of 1X SDS. 10 ug of protein was applied in an SDS-PAGE gel and transferred to PVDF membranes. Membranes were blocked with PBS-0.05% Tween 20 (PBS-T) and 5% non-fat milk for 30min. Primary antibodies were incubated in PBS-T overnight. Following incubation, blots were washed three times in PBS-T and then incubated with horseradish peroxidase (HRP)-conjugated anti-mouse IgG (CST #7076) or anti-rabbit IgG (CST #7074) at a 1:10000 dilution for 60 minutes ar RT and developed using a chemiluminescence system (Pierce™ ECL Western Blotting Substrate or Pierce SuperSignal™ West Atto Ultimate Sensitivity Substrate; ThermoFisher Scientific). […]

ATF6 = test: Immunoblotting for ATF6 cleavage in U2OS cells; format: cell-based, human; details: U2OS w/o glutamine 24h, then 8 hours ± 2 mM gln, 15 µg/ml tunicamycin
Experimental: as §1

GLUL = GLUL (Homo sapiens, UniProt P15104); details: HepG2, 500 µM MSX for 8h; immunoblot
Text: as §3
For all experiments, unless otherwise indicated, cells were plated in complete DMEM. The next day cell monolayers were rinsed 2X with 1X PBS and cultured in DMEM overnight, followed by treatments as indicated in text. […] Protein concentration was quantified using Pierce™ BCA Protein Assay Kit and after diluted with 5X SDS added to a final of 1X SDS. […]

ATF4 = test: Immunoblotting for ATF4 (integrated stress response) in U2OS cells; format: cell-based, human; details: U2OS ± gln, ISRIB 200nM, 8h
Experimental: as §1

SREBP2 [7] = test: Immunoblotting for SREBP2 cleavage in HepG2 cells; format: cell-based, human; details: Hep G2 starved of glutamine 24h, brefeldin A 0.5 µg/ml
Experimental: as §1

Sequence of GLUL (P15104 whole entry): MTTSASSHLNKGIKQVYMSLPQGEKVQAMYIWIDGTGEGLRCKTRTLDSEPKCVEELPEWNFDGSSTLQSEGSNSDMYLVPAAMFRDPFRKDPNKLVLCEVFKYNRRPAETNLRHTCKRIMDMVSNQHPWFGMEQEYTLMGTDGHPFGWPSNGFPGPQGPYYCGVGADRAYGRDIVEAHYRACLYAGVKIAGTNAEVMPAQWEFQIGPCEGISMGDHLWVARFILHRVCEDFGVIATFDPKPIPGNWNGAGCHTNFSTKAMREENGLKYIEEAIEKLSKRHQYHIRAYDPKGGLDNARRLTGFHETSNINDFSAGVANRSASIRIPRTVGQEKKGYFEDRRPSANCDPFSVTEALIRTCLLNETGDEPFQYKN

NC(=O)CC[C@@H](N)C(=O)O [D-glutamine]
rescue of HMGCR in glutamine-starved cells (HMGCR [1]): do not rescue HMGCR in glutamine-starved cells

[N-]=[N+]=CC(=O)CC[C@H](N)C(=O)O [DON, 6-diazo-5-oxo-L-norleucine]
rescue of HMGCR in glutamine-starved cells (HMGCR [1]): do not rescue HMGCR in glutamine-starved cells

Cl.N [^15N-ammonia, Ammonium-^15N chloride]
15N-labelled glutamine of total glutamine (U2OS cells [2]): less than 2% | 15N-labelled glutamine of total glutamine (HepG2 cells): majority | increase of total glutamine pool (HepG2 cells): > two-fold

CC(=O)C(=O)[O-].[Na+] [pyruvate, sodium pyruvate]
rescue of HMGCR in glutamine-starved cells (HMGCR [1]): do not rescue HMGCR in glutamine-starved cells

O=C(O)CCC(=O)C(=O)O [αKG, alpha-ketoglutarate]
loss of HMGCR during glutamine withdrawal (HMGCR [1]): neither treatment prevented the loss of HMGCR during glutamine withdrawal | HMGCR protein level (HMGCR [1]; U2OS starved of glutamine 8 hours, αKG 1 mM): decreased in cells starved of glutamine for 8 hours, despite αKG supplementation | mTORC1 phosphorylation of S6 kinase (S6K1) (p70 phospho-S6K (pS6K)): restored mTORC1 phosphorylation of its target ribosomal protein S6 kinase (S6K1) | processing of SREBP2 (precursor and mature forms) (SREBP2 [3]): inhibited the processing of SREBP2 with or without αKG | localization of GFP-SCAP (eGFP-SCAP; then gln- ± αKG 1 mM with MSX 500 µM): retained GFP-SCAP in the ER | m+2 and m+6 citrate pools (U2OS cells [4]; 25 mM 13C6-glucose): sufficient to restore m+2 and m+6 citrate pools to those of gln+ cells | m+4 malate and succinate (U2OS cells [4]; 25 mM 13C6-glucose): blunted the increase in m+4 malate and succinate caused by glutamine starvation | levels of TCA-intermediates (total pool size) (U2OS cells [4]): partly rescued levels of TCA-intermediates | 13C-incorporation into cholesterol (U2OS cells [5]): did not, however, rescue the >5-fold decrease in ^13C-incorporation into cholesterol | FDFT1 protein level (FDFT1): decreased in cells starved of glutamine for 8 hours, despite αKG supplementation

Cl.N [ammonia, ammonium chloride]
HMGCR following ammonia treatment (HMGCR [6]; HepG2 starved of glutamine 24h, then 24 h w/o gln ± 10 mM 15NH4Cl): increased following ammonia treatment | glutamine and HMGCR following ammonia treatment (HMGCR [1]; U2OS starved of glutamine 24h, then 24 h w/o gln ± 10 mM 15NH4Cl): neither glutamine nor HMGCR increased following ammonia treatment

tunicamycin
ATF6 cleavage (ATF6): similarly drove ATF6 cleavage in glutamine-fed or starved cells

uridine diphosphate N-acetylglucosamine [UDP-GlcNAc]
rescue of HMGCR levels during glutamine starvation by supplements (HMGCR [1]; U2OS w/o gln 8 hours, NEAA 100 µM, nucleosides, glucosamine 1 mM, ± αKG 1mM): did not rescue HMGCR levels during glutamine starvation

NC(=O)CC[C@H](N)C(=O)O [glutamine]
EC50 (HMGCR [1]; Homo sapiens, U2OS w/o gln 24h, refed gln 8h, immunoblot, read-out: half-maximal effects of glutamine on HMGCR induction): 250 to 500 µM | glutamine concentration sufficient to induce HMGCR (HMGCR [1]; U2OS w/o gln 24h, refed gln 8h): 0.125 mM | Percentage of cells with Golgi-localized eGFP-SCAP (eGFP-SCAP; then gln 2 mM with MSX 500 µM): > 75%

CS(=N)(=O)CCC(N)C(=O)O (centres unmarked) [MSX, 2-amino-4-(S-methylsulfonimidosyl) butanoic acid]
HMGCR during glutamine starvation (HMGCR [6]; HepG2 starved of gln 24h, then w/out gln ± 500 µM MSX for 8h, immunoblot): further decreased HMGCR during glutamine starvation | ammonium chloride-induced increase in HMGCR (HMGCR [6]; HepG2 starved of gln 24h, then w/out gln, 10 mM NH4Cl ± 500 µM MSX for 8h, immunoblot): prevented the ammonium chloride-induced increase in HMGCR | migration pattern of GLUL (GLUL): led to a shift in the migration pattern of GLUL

O=C(COc1ccc(Cl)cc1)NC1CCC(NC(=O)COc2ccc(Cl)cc2)CC1 (centres unmarked) [ISRIB]
loss of HMGCR during glutamine withdrawal (HMGCR [1]): neither treatment prevented the loss of HMGCR during glutamine withdrawal | activation of ISR effector ATF4 (ATF4): blocked the activation of the key ISR effector ATF4

CC(C)C[C@@H](C=O)NC(=O)[C@H](CC(C)C)NC(=O)[C@H](CC(C)C)NC(=O)OCc1ccccc1 [MG-132] (Cbz-Leu-Leu-Leu-aldehyde)
depletion of HMGCR following glutamine withdrawal (HMGCR [1]; U2OS ± glutamine, MG-132 10 µM, 8h): did not prevent the depletion of HMGCR following glutamine withdrawal

C[C@H]1CCC/C=C/[C@@H]2C[C@H](O)C[C@H]2[C@H](O)/C=C/C(=O)O1 [BFA, brefeldin A]
HMGCR (HMGCR [6]; Hep G2 starved of glutamine 24h, brefeldin A 0.5 µg/ml): rescue SREBP2 cleavage and HMGCR in glutamine-starved cells to levels similar to those in glutamine-fed cells | SREBP2 cleavage (SREBP2 [7]): rescue SREBP2 cleavage and HMGCR in glutamine-starved cells to levels similar to those in glutamine-fed cells

O=C(Cc1ccccc1)Nc1nnc(CCSCCc2nnc(NC(=O)Cc3ccccc3)s2)s1 [BPTES, bis-2-(5-phenylacetamido-1,3,4-thiadiazol-2-yl)ethylsulfide]
HMGCR levels in glutamine-replete conditions (HMGCR [1]; U2OS 8h, 30µM BPTES, 2 mM gln, 1 mM αKG): did not reduce HMGCR levels

From patent EP4459280A1, “SCREENING AND USES OF GLUTATHIONE SYNTHETASE MODULATORS” (Max-Planck-Gesellschaft zur Förderung der Wissenschaften …, priority 2023, dated 2024)
